Test system: 454973-116-R2-J3-PDC complex spheroid viability
Assay: Anticancer human tumor 454973-116-R2-J3-PDC patient-derived pancreatic carcinoma cell line growth inhibition [POLQ]
Conditions: for IC50: curve of first compound; for viability, T/C: stronger effect = lower value
Method in brief: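 Three-cell-type spheroids modelling solid tumor plus stroma served as the readout system; POL inhibitors were tested individually and in combination, concentration ranges set by clinical Cmax where known.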

[1] = second compound 0.0316 µM, first compound 0.0316 µM
[2] = second compound 0.0316 µM, first compound 0.1 µM
[3] = second compound 0.0316 µM, first compound 0.316 µM
[4] = second compound 0.0316 µM, first compound 1 µM
[5] = second compound 0.0316 µM, first compound 3.16 µM
[6] = second compound 0.0316 µM, first compound 10 µM
[7] = second compound 0.1 µM, first compound 0.0316 µM
[8] = second compound 0.1 µM, first compound 0.1 µM
[9] = second compound 0.1 µM, first compound 0.316 µM
[10] = second compound 0.1 µM, first compound 1 µM
[11] = second compound 0.1 µM, first compound 3.16 µM
[12] = second compound 0.1 µM, first compound 10 µM
[13] = second compound 0.316 µM, first compound 0.0316 µM
[14] = second compound 0.316 µM, first compound 0.1 µM
[15] = second compound 0.316 µM, first compound 0.316 µM
[16] = second compound 0.316 µM, first compound 1 µM
[17] = second compound 0.316 µM, first compound 3.16 µM
[18] = second compound 0.316 µM, first compound 10 µM
[19] = second compound 1 µM, first compound 0.0316 µM
[20] = second compound 1 µM, first compound 0.1 µM
[21] = second compound 1 µM, first compound 0.316 µM
[22] = second compound 1 µM, first compound 1 µM
[23] = second compound 1 µM, first compound 3.16 µM
[24] = second compound 1 µM, first compound 10 µM
[25] = second compound 3.16 µM, first compound 0.0316 µM
[26] = second compound 3.16 µM, first compound 0.1 µM
[27] = second compound 3.16 µM, first compound 0.316 µM
[28] = second compound 3.16 µM, first compound 1 µM
[29] = second compound 3.16 µM, first compound 3.16 µM
[30] = second compound 3.16 µM, first compound 10 µM
[31] = second compound 10 µM, first compound 0.0316 µM
[32] = second compound 10 µM, first compound 0.1 µM
[33] = second compound 10 µM, first compound 0.316 µM
[34] = second compound 10 µM, first compound 1 µM
[35] = second compound 10 µM, first compound 3.16 µM
[36] = second compound 10 µM, first compound 10 µM
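Note: spheroids exposed to drugs for seven days before measurement.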
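Throughout, for viability, T/C: percent viability relative to DMSO vehicle control wells taken as 100%.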

Q: `C#Cc1c(F)ccc2cc(O)cc(-c3ncc4c(N5CC6CCC(C5)N6)nc(OCC56CCCN5CC(F)C6)nc4c3F)c12` (stereo unspecified) + Cc1cccc(N(C)C(=O)C2C(O)CCN2c2nc(C)cc(C(F)(F)F)c2C#N)c1 was tested. Which IC50 (second compound 0.0316 µM) did it give?
A: 66.3 nM

Q: What about the IC50 (second compound 0.1 µM) of the same molecule?
A: 71.1 nM

Q: And the IC50 (second compound 0.316 µM)?
A: 72.8 nM

Q: What about the IC50 (second compound 1 µM) of the same molecule?
A: 60.6 nM

Q: What about the IC50 (second compound 3.16 µM) of the same molecule?
A: 47.6 nM

Q: What about the IC50 (second compound 10 µM) of the same molecule?
A: < 31.6 nM

Q: What about the viability, T/C [1] of the same molecule?
A: 60.8%

Q: What about the viability, T/C [2] of the same molecule?
A: 44.5%

Q: What about the viability, T/C [3] of the same molecule?
A: 32.2%

Q: What about the viability, T/C [4] of the same molecule?
A: 25.6%

Q: And the viability, T/C [5]?
A: 23%

Q: What about the viability, T/C [6] of the same molecule?
A: 19.5%

Q: What about the viability, T/C [7] of the same molecule?
A: 65.3%

Q: What about the viability, T/C [8] of the same molecule?
A: 43.8%

Q: What about the viability, T/C [9] of the same molecule?
A: 32.6%

Q: And the viability, T/C [10]?
A: 30.1%

Q: And the viability, T/C [11]?
A: 26.5%

Q: What about the viability, T/C [12] of the same molecule?
A: 26.6%

Q: What about the viability, T/C [13] of the same molecule?
A: 66.6%

Q: And the viability, T/C [14]?
A: 44.4%

Q: And the viability, T/C [15]?
A: 32.8%

Q: What about the viability, T/C [16] of the same molecule?
A: 27.9%

Q: What about the viability, T/C [17] of the same molecule?
A: 23.2%

Q: What about the viability, T/C [18] of the same molecule?
A: 28.9%

Q: And the viability, T/C [19]?
A: 56%

Q: What about the viability, T/C [20] of the same molecule?
A: 45.3%

Q: What about the viability, T/C [21] of the same molecule?
A: 31.9%

Q: What about the viability, T/C [22] of the same molecule?
A: 25.2%

Q: What about the viability, T/C [23] of the same molecule?
A: 26.5%

Q: What about the viability, T/C [24] of the same molecule?
A: 25.3%

Q: And the viability, T/C [25]?
A: 52.9%

Q: And the viability, T/C [26]?
A: 44.5%

Q: And the viability, T/C [27]?
A: 35.1%

Q: What about the viability, T/C [28] of the same molecule?
A: 23.9%

Q: What about the viability, T/C [29] of the same molecule?
A: 28.2%

Q: And the viability, T/C [30]?
A: 24.4%

Q: What about the viability, T/C [31] of the same molecule?
A: 50%

Q: And the viability, T/C [32]?
A: 38.5%

Q: What about the viability, T/C [33] of the same molecule?
A: 36%

Q: And the viability, T/C [34]?
A: 31.8%

Q: What about the viability, T/C [35] of the same molecule?
A: 29.1%

Q: What about the viability, T/C [36] of the same molecule?
A: 23.7%

Q: For `O=C(c1cc(Cc2n[nH]c(=O)c3ccccc23)ccc1F)N1CCN(C(=O)C2CC2)CC1` + COC1C(OC(N)=O)C(O)C(Oc2ccc3c(O)c(NC(=O)c4ccc(O)c(CC=C(C)C)c4)c(=O)oc3c2C)OC1(C)C, which IC50 (second compound 0.0316 µM) is on record?
A: > 10000 nM

Q: And the IC50 (second compound 0.1 µM)?
A: > 10000 nM

Q: And the IC50 (second compound 0.316 µM)?
A: > 10000 nM

Q: And the IC50 (second compound 1 µM)?
A: > 10000 nM

Q: What about the IC50 (second compound 3.16 µM) of the same molecule?
A: > 10000 nM

Q: What about the IC50 (second compound 10 µM) of the same molecule?
A: > 10000 nM

Q: And the viability, T/C [1]?
A: 103%

Q: And the viability, T/C [2]?
A: 105%

Q: What about the viability, T/C [3] of the same molecule?
A: 96.9%

Q: And the viability, T/C [4]?
A: 116%

Q: And the viability, T/C [5]?
A: 93.7%

Q: What about the viability, T/C [6] of the same molecule?
A: 61.6%

Q: What about the viability, T/C [7] of the same molecule?
A: 106%

Q: And the viability, T/C [8]?
A: 113%

Q: What about the viability, T/C [9] of the same molecule?
A: 106%

Q: What about the viability, T/C [10] of the same molecule?
A: 116%

Q: What about the viability, T/C [11] of the same molecule?
A: 94.6%

Q: And the viability, T/C [12]?
A: 63.2%

Q: And the viability, T/C [13]?
A: 110%

Q: And the viability, T/C [14]?
A: 107%

Q: And the viability, T/C [15]?
A: 99.4%

Q: What about the viability, T/C [16] of the same molecule?
A: 113%

Q: And the viability, T/C [17]?
A: 98.3%

Q: What about the viability, T/C [18] of the same molecule?
A: 69.7%

Q: And the viability, T/C [19]?
A: 121%

Q: What about the viability, T/C [20] of the same molecule?
A: 104%

Q: And the viability, T/C [21]?
A: 104%

Q: And the viability, T/C [22]?
A: 105%

Q: And the viability, T/C [23]?
A: 97.5%

Q: What about the viability, T/C [24] of the same molecule?
A: 63.3%

Q: What about the viability, T/C [25] of the same molecule?
A: 115%

Q: And the viability, T/C [26]?
A: 104%

Q: What about the viability, T/C [27] of the same molecule?
A: 109%

Q: What about the viability, T/C [28] of the same molecule?
A: 103%

Q: What about the viability, T/C [29] of the same molecule?
A: 94.7%

Q: What about the viability, T/C [30] of the same molecule?
A: 64.2%

Q: What about the viability, T/C [31] of the same molecule?
A: 106%

Q: And the viability, T/C [32]?
A: 94%

Q: And the viability, T/C [33]?
A: 95.6%

Q: And the viability, T/C [34]?
A: 107%

Q: What about the viability, T/C [35] of the same molecule?
A: 99.2%

Q: And the viability, T/C [36]?
A: 59.4%

Q: How did the IC50 (second compound 0.0316 µM) turn out when `CC[C@@]1(O)C(=O)OCc2c1cc1n(c2=O)Cc2cc3c(CN(C)C)c(O)ccc3nc2-1` + Cc1cccc(N(C)C(=O)C2C(O)CCN2c2nc(C)cc(C(F)(F)F)c2C#N)c1 was run?
A: 18.7 nM

Q: And the IC50 (second compound 0.1 µM)?
A: 19.2 nM

Q: And the IC50 (second compound 0.316 µM)?
A: 18.1 nM

Q: And the IC50 (second compound 1 µM)?
A: 18.6 nM

Q: And the IC50 (second compound 3.16 µM)?
A: 16.8 nM

Q: And the IC50 (second compound 10 µM)?
A: 19.1 nM

Q: What about the viability, T/C (second compound 0.0316 µM, first compound 0.000316 µM) of the same molecule?
A: 92.2%

Q: What about the viability, T/C (second compound 0.0316 µM, first compound 0.001 µM) of the same molecule?
A: 102%

Q: And the viability, T/C (second compound 0.0316 µM, first compound 0.00316 µM)?
A: 90.5%

Q: And the viability, T/C (second compound 0.0316 µM, first compound 0.01 µM)?
A: 85.3%

Q: And the viability, T/C [1]?
A: 20.4%

Q: And the viability, T/C [2]?
A: 16.1%

Q: What about the viability, T/C (second compound 0.1 µM, first compound 0.000316 µM) of the same molecule?
A: 104%

Q: And the viability, T/C (second compound 0.1 µM, first compound 0.001 µM)?
A: 104%

Q: What about the viability, T/C (second compound 0.1 µM, first compound 0.00316 µM) of the same molecule?
A: 99.8%

Q: What about the viability, T/C (second compound 0.1 µM, first compound 0.01 µM) of the same molecule?
A: 88.6%

Q: What about the viability, T/C [7] of the same molecule?
A: 20.2%

Q: And the viability, T/C [8]?
A: 19.7%

Q: And the viability, T/C (second compound 0.316 µM, first compound 0.000316 µM)?
A: 98.3%

Q: What about the viability, T/C (second compound 0.316 µM, first compound 0.001 µM) of the same molecule?
A: 118%

Q: What about the viability, T/C (second compound 0.316 µM, first compound 0.00316 µM) of the same molecule?
A: 113%

Q: What about the viability, T/C (second compound 0.316 µM, first compound 0.01 µM) of the same molecule?
A: 83.9%

Q: What about the viability, T/C [13] of the same molecule?
A: 18.4%

Q: What about the viability, T/C [14] of the same molecule?
A: 16.5%

Q: What about the viability, T/C (second compound 1 µM, first compound 0.000316 µM) of the same molecule?
A: 103%

Q: What about the viability, T/C (second compound 1 µM, first compound 0.001 µM) of the same molecule?
A: 106%

Q: And the viability, T/C (second compound 1 µM, first compound 0.00316 µM)?
A: 97.1%

Q: And the viability, T/C (second compound 1 µM, first compound 0.01 µM)?
A: 84.9%

Q: And the viability, T/C [19]?
A: 19.6%

Q: What about the viability, T/C [20] of the same molecule?
A: 19.8%

Q: What about the viability, T/C (second compound 3.16 µM, first compound 0.000316 µM) of the same molecule?
A: 116%

Q: And the viability, T/C (second compound 3.16 µM, first compound 0.001 µM)?
A: 106%

Q: What about the viability, T/C (second compound 3.16 µM, first compound 0.00316 µM) of the same molecule?
A: 105%

Q: And the viability, T/C (second compound 3.16 µM, first compound 0.01 µM)?
A: 76%

Q: And the viability, T/C [25]?
A: 16.8%

Q: What about the viability, T/C [26] of the same molecule?
A: 19.8%

Q: What about the viability, T/C (second compound 10 µM, first compound 0.000316 µM) of the same molecule?
A: 107%

Q: What about the viability, T/C (second compound 10 µM, first compound 0.001 µM) of the same molecule?
A: 96.6%

Q: And the viability, T/C (second compound 10 µM, first compound 0.00316 µM)?
A: 97.3%

Q: What about the viability, T/C (second compound 10 µM, first compound 0.01 µM) of the same molecule?
A: 85.6%

Q: And the viability, T/C [31]?
A: 21.3%

Q: What about the viability, T/C [32] of the same molecule?
A: 22.6%
